{
  "source": "patent US11104661B1",
  "about": "“Inhibiting human integrin (α-4) (β-7)” (Morphic Therapeutic, Inc., priority 2019, dated 2021)",
  "biological_target": "T1, α4β7 (Homo sapiens, UniProt P13612+P26010)",
  "T1 construct": "endogenous in cells; host or cells: RPMI 8866 cells",
  "T1 sequence (P13612 34-1032)": "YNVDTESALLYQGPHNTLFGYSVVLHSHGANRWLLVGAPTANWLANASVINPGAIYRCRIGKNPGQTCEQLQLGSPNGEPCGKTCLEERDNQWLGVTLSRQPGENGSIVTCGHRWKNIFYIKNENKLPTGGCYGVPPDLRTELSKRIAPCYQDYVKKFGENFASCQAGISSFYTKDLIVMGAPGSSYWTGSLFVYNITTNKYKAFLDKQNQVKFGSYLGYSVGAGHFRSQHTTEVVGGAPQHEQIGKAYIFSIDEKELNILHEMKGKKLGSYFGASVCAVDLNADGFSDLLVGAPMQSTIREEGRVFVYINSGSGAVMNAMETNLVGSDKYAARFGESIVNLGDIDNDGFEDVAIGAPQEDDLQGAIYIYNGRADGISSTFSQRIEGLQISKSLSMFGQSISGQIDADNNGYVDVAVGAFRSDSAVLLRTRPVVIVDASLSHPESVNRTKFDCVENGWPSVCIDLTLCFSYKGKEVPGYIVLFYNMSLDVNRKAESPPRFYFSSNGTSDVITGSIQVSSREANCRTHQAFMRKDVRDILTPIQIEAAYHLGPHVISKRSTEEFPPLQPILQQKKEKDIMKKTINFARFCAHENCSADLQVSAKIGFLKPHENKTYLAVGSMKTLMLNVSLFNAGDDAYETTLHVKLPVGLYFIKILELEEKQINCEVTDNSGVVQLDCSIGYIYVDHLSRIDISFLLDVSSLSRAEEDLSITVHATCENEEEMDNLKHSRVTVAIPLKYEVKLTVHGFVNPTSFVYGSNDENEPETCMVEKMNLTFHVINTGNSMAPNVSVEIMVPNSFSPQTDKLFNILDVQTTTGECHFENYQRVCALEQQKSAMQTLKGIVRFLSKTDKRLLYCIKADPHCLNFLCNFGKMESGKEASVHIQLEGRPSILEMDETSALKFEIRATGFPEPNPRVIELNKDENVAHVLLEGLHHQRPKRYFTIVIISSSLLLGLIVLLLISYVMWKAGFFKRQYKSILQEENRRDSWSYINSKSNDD",
  "T1 sequence (P26010 20-798)": "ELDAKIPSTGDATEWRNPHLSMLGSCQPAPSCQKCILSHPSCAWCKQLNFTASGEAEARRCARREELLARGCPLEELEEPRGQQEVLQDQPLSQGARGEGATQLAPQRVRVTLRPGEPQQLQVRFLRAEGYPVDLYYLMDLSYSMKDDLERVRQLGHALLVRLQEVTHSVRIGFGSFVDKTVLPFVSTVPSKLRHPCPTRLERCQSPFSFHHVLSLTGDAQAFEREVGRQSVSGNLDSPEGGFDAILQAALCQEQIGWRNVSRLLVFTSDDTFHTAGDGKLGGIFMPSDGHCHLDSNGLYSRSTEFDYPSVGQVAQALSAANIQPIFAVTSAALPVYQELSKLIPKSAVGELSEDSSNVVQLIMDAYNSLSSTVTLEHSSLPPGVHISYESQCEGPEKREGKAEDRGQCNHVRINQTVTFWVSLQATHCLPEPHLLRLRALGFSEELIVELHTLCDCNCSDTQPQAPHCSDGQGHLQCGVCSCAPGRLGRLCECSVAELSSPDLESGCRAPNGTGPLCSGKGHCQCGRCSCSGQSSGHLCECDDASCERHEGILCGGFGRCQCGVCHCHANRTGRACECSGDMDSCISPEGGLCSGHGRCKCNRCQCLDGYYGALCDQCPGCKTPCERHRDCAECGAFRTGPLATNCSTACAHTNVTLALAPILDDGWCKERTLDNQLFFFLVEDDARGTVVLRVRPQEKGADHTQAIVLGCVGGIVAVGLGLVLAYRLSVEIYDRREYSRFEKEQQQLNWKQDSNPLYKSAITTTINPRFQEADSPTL",
  "test": "Cell adhesion assay, RPMI8866 cells on MAdCAM coated plates (Example 7)",
  "format": "cell-based",
  "conditions": "RPMI8866 cells adhering to recombinant human MAdCAM; Table 4 comparative compounds; read-out: CA Assay (Example 7)",
  "procedure": "Three in vitro assays were used to examine the α4β7 mechanistic process used by cells: 1) ligand:receptor affinity, 2) the avidity of those interactions on a cell's surface, and 3) how those interactions fare under an imposing force. In Example 5, a Fluorescence Polarization (FP) assay is used to measure compound activity through binding competition with the fluorescein-labeled peptide. In Example 6, the potency of compounds against α4β7 is measured in the cell-based ligand binding assay (LBA), using RPMI 8866 cells incubated with the compound samples in competition with soluble MAdCAM-1 ligand. In Example 7, activity of compounds is evaluated in a cell adhesion assay that mechanistically tests what occurs in vivo when trafficking cells utilize α4β7 to adhere to MAdCAM-1 expressing HEVs of the gut during the extravasation process. In the cell adhesion assay of Example 7, a MAdCAMI1-(Fc) is coated on plastic, and α4β7 expressing cells (RPMI-8866) are allowed to adhere to the coated surface in the presence of the test compounds. Next, the force of washing with buffer is applied to cells thereby testing the strength of that adhesion. Unattached cells are removed and the remaining adherent cells are quantified.\nExample 7 describes a cell adhesion assay.\nTo each well of a 96 well plate, 100 ug of recombinant human MAdCAM in 100 ul PBS is added and incubated overnight at 4° C. After incubation MAdCAM is removed by aspiration and 200 ul of PBS+1% BSA is added to block the plate for 2 hours at 37° C. and 5% CO2. During this incubation dilution curves of compound are made in 100% DMSO in 96 well V bottom plates. 1.75 ul of diluted compounds are then transferred to a new 96 well U bottom plate containing 20 ul of assay media (phosphate free DMEM+25 mM HEPES+1% BSA). To this an additional 155 ul of assay media is added with mixing by pipetting up and down. This mixture is allowed to incubate for 15 minutes at 37° C. and 5% CO2. After incubation 175 ul of assay media containing 2e6/mL RPMI8866 cells is added to compound containing wells without mixing and plate is allowed to incubate for another 15 minutes at 37° C. and 5% CO2. During this incubation MAdCAM coated plates are removed from incubator and washed twice with 200 ul PBS+0.1% BSA. […] This plate is then incubated at 37° C. and 5% CO2 for 1 hour. After incubation plates are washed twice with 200 ul and once with 50 ul of phenol free RPMI+1% BSA. A final 50 ul of phenol free RPMI+1% BSA is added to wells after last wash. Next 50 ul of Promega cell titer glow is added to the wells. Plate is incubated on shaker for 2 minutes at 200 RPM followed by another 8 minutes off shaker before having the luminescence read on a Biotek Citation 5 plate reader. Raw data is converted to % inhibition compared to bottom of curve and analyzed using a 4-parameter non linear curve in Prism to determine IC50 and IC90.",
  "data": [
    {"compound": "Cc1cccc(C)c1-c1cccc([C@H](CC(=O)O)NC(=O)[C@H](CC(C)C)n2cc(CN3CC(F)C3)ccc2=O)c1", "note": "[drawing 604]", "values": [
      {"measurement": "IC50", "result": "> 50", "unit": "nM"}
    ]}
  ]
}
